# Source: patent EP2719696A1, “NOVEL KINASE INHIBITORS” (Asinex Limited, priority 2011, dated 2012)
# Read-outs that look alike come from different tables or passages of the source.
# Key:
# [1] = In vivo PK study, determination of brain-to-plasma ratio; conditions: mouse, SHK mice, PO dosing 5mg/kg, 20% water solution of HPβCD, read-out: brain-to-plasma concentration ratio
# Protocol: Male SHK mice (22-25 g) were dosed with 5 mg/kg of related compounds as a single injection via oral gavage (formulated in 20% water solution of HPβCD). Blood samples and whole brains were collected from three mice at each of eight collection time points of 0.05, 0.25, 0.5, 1, 2, 4, 8 and 24 h post dose. Plasma was collected from blood samples, and whole brain samples were homogenized in three volumes of water. Both tissues were analyzed for concentrations of related compounds by liquid chromatography-mass spectrometry (LC-MS/MS). Table 9. brain-to-plasma concentration ratios in SHK mice after PO dosing 5mg/kg for several selected examples
# cKIT = cKIT (Homo sapiens, UniProt P10721); assay: Kinase inhibition assay (ELISA); format: biochemical; conditions: 60 µM ATP
# Protocol: (§1) To determine the interaction of our compounds with tyrosine kinases: PDGFR-α, cKIT, PDGFR-β, VEGFR-2 we used enzyme-linked immunosorbent assay (ELISA).
# (§2) Determination plates preparation: The plates are processed by neutravidine for 2 h at 30°C. After washing thrice with TBS/0.1% Tween-20 and blocking with 1% BSA/TBS for 1 h at room temperature (RT) 96-well microtiter plates were washed thrice with TBS/0.1% Tween-20 again.
# (§3) Reaction: After addition test compounds (in DMSO, DMSO final concentration - 5%) to reaction buffer (20 mM HEPES, pH 7.5, 15 mM MgCl2, 3 mM MnCl2, 2 mM DTT, 0.2 mM Na3VO4, 0.005% Triton X-100; PDGFR-α,: 0.05 µg/ml, 0.5 µg/ml Poly(G,T)-biotin; PDGFR-β: 0.05 µg/ml, 1 µg/ml Poly(G,T)-biotin; c-KIT: 0.03 µg/ml, 0.15 µg/ml Poly(G,T)-biotin; VEGFR-2: 0.07 µg/ml, 0.05 µg/ml Poly(G,T)-biotin) and preincubation of reaction for 10 min at RT and intensive agitation, ATP solution (PDGFR-α, - 1 µM, PDGFR-β - 0.5 µM, c-KIT - 60 µM, VEGFR-2: - 1.5 µM ATP in reaction buffer per well) was added to initiate reaction. Following incubation of mixture for 1 h at 30°C and intensive agitation the reaction was stopped by stop solution (20 mM HEPES, pH 7.5, 50 mM EDTA).
# (§4) Kinase activity determination: The reaction mixture was transferred to determination plate. After mix incubation for 1 h at RT and intensive agitation the plates were washed thrice with TBS/0.1% Tween-20. Following mouse monoclonal 0.05 µg/ml Anti-p-Tyr (PY20) HRP antibodies (Santa Cruz Biotechnology) in PBS/BSA were added for 1 h at RT and intensive agitation. After washing, antibody binding was detected by tetramethylbenzidine (TMB) color development (Sigma). Measurement of A450 nm was carried out after addition of H2SO4
# PDGFR-α = PDGFR-α (Homo sapiens, UniProt P16234); assay: Kinase inhibition assay (ELISA); format: biochemical; conditions: 1 µM ATP
# Protocol: as §1, §2, §3, §4
# VEGFR-2 = VEGFR-2 (Homo sapiens, UniProt P35968); assay: Kinase inhibition assay (ELISA); format: biochemical; conditions: 1.5 µM ATP
# Protocol: as §1, §2, §3, §4
# A375 = assay: MTT proliferation / cytotoxicity assay; format: cell-based, human; conditions: Homo sapiens, A-375, 72 h
# Protocol: (§5) Cell culture. The human cancer cell lines A172, A375, A2780 and U251 were purchased from the American Type Culture Collection. All cells were routinely maintained in DMEM containing 10% fetal bovine serum (Omega Scientific), at 37°C in 5% C02.
# (§6) Proliferation assay Inhibition of cell A172, A375, A2780 and U251 cell proliferation was assessed by a MTT assay (MTT = Thiazolyl Blue Tetrazolium Bromide) . Cells were inoculated into 96-well microtiter plates containing 0.5% fetal calf serum and incubated at 37°C, 5% CO2, 95% air, and 100% relative humidity for 24 h prior to addition of testing compounds. Following compounds addition, the plates were incubated for an additional 72 h before processing to measure the cell population. Each compound was tested at eight different concentrations in triplicate, as was a control sample. Growth inhibition of 50% (IC50) is calculated by analysis of the data in Prizm3.4 software.
# (§7) Table 8 lists IC50 values for inhibition of growth of several cancer cell lines, including the glioblastoma cell lines A172 and U251, measured in a MTT cytotoxicity assay. Table 8. Data of cytotoxicity assay (MTT) for several cancer cell lines, IC50 [µM]
# A2780 = assay: MTT proliferation / cytotoxicity assay; format: cell-based, human; conditions: Homo sapiens, A2780, 72 h
# Protocol: as §5, §6, §7
# U251 = assay: MTT proliferation / cytotoxicity assay; format: cell-based, human; conditions: Homo sapiens, U-251, 72 h, glioblastoma cell line
# Protocol: as §5, §6, §7
# A172 = assay: MTT proliferation / cytotoxicity assay; format: cell-based, human; conditions: Homo sapiens, A 172, 72 h, glioblastoma cell line
# Protocol: as §5, §6, §7
# cKIT, sequence (P10721 26-976): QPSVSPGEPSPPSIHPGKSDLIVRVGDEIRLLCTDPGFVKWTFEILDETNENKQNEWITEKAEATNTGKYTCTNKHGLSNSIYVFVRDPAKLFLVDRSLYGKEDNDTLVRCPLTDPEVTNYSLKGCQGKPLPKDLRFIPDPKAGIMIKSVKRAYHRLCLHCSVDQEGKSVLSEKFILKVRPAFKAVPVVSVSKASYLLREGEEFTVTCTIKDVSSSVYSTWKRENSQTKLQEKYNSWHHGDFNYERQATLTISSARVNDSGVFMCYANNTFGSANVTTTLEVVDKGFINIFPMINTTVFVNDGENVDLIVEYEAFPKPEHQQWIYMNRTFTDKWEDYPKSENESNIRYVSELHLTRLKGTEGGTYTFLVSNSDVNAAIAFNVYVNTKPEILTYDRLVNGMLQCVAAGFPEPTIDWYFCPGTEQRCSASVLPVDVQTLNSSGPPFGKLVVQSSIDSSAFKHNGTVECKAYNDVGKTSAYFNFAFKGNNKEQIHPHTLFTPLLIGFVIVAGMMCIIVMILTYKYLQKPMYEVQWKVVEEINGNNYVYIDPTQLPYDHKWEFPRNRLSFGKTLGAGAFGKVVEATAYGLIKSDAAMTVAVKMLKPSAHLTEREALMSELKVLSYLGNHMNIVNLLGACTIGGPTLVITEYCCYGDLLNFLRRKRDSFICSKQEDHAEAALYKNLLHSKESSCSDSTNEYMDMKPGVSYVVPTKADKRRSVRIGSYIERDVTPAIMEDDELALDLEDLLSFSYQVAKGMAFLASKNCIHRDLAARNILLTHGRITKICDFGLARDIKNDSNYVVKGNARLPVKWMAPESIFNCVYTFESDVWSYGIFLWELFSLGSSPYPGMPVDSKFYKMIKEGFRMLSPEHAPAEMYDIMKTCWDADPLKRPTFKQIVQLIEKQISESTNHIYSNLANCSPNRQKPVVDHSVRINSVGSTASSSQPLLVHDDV
# PDGFR-α, sequence (P16234 24-1089, species assumed): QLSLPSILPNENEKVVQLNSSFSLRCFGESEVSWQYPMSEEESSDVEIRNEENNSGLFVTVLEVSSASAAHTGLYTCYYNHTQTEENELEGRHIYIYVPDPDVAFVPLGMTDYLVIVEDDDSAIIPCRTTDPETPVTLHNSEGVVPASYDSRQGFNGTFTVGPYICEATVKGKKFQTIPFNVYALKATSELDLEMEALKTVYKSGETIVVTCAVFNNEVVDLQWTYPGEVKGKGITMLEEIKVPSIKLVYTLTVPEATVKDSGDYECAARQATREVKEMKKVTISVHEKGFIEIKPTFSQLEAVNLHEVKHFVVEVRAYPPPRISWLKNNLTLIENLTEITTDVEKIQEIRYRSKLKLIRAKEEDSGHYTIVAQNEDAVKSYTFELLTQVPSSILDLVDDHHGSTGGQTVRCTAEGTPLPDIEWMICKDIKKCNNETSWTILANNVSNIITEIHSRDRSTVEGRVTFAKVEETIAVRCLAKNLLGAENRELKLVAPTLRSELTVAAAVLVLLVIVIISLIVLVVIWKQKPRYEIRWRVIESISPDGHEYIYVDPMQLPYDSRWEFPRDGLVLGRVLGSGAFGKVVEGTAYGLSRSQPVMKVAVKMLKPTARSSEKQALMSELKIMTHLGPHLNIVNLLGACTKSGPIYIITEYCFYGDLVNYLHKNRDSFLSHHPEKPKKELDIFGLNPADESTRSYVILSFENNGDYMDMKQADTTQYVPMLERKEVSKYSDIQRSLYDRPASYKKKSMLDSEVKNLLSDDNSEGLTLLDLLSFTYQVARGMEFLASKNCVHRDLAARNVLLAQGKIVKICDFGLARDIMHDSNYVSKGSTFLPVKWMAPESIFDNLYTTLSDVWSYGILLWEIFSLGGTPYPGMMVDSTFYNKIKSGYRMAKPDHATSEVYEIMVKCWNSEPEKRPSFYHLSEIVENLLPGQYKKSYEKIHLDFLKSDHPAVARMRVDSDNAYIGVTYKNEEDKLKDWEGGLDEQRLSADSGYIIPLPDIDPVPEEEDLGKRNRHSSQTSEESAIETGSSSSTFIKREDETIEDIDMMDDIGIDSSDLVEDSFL
# VEGFR-2, sequence (P35968 20-1356, species assumed): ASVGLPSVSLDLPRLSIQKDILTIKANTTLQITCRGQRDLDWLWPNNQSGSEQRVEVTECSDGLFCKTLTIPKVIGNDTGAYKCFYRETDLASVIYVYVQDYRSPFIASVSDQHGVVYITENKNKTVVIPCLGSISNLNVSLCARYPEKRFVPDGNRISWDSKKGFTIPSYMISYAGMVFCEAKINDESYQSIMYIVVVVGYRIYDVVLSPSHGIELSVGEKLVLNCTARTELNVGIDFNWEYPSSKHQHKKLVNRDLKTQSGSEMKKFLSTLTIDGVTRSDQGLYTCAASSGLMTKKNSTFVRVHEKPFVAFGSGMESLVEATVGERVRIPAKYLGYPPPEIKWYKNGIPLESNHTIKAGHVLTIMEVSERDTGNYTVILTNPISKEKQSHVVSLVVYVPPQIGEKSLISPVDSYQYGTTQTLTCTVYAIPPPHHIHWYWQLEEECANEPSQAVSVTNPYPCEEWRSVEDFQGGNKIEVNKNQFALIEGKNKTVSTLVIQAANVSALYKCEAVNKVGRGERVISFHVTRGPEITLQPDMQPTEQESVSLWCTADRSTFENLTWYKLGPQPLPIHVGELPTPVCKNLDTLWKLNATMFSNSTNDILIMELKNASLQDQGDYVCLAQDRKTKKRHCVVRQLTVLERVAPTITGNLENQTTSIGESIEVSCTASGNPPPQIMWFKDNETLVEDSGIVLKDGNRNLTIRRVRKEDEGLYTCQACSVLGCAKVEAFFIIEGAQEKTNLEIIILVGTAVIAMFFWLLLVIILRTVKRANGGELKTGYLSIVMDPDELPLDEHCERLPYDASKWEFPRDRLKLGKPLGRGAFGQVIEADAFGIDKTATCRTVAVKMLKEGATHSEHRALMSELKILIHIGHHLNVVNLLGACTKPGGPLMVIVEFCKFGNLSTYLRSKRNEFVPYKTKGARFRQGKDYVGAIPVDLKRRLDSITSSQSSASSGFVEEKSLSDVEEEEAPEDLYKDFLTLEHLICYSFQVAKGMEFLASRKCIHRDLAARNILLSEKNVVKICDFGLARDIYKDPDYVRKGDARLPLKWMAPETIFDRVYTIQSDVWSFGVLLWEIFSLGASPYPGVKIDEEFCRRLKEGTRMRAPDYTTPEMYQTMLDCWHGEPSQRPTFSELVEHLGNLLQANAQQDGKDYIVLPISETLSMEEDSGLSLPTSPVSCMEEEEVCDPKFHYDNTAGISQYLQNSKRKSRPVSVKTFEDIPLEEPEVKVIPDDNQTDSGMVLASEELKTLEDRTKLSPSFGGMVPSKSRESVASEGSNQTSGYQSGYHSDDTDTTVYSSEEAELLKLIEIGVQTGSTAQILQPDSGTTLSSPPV
"Kp ([1]; male, brain/plasma)",IC50 (cKIT) [nM],IC50 (PDGFR-α) [nM],IC50 (VEGFR-2) [nM],Structure (SMILES),IC50 (A375) [µM],IC50 (A2780) [µM],IC50 (U251) [µM],IC50 (A172) [µM],Kp ([1]; brain)
3.66,> 10,< 10,> 10,"OCCN1CCC(Cc2ccnc(Nc3ncc(-c4ccc(F)cc4)s3)c2)CC1 [Example 003, 2-(4-{2-[5-(4-Fluoro-phenyl)-thiazol-2-ylamino]-pyridin-4-ylmethyl}-piperidin-1-yl)-ethanol]",> 1,> 1,> 10,≤ 1,
10.3,< 10,< 10,> 10,"Fc1ccc(-c2cnc(Nc3cc(CC4CNCCOC4)ccn3)s2)cc1 (centres unmarked) [Example 009, [5-(4-Fluoro-phenyl)-thiazol-2-yl]-(4-[1,4]oxazepan-6-ylmethyl-pyridin-2-yl)-amine]",> 1,> 1,> 10,> 10,
12.7,> 10,< 10,> 10,"OCCN1CCOCC(Cc2ccnc(Nc3ncc(-c4ccc(F)cc4)s3)c2)C1 (centres unmarked) [Example 011, 2-(6-{2-[5-(4-Fluoro-phenyl)-thiazol-2-ylamino]-pyridin-4-ylmethyl}-[1,4]oxazepan-4-yl)-ethanol]",> 1,> 1,> 10,> 1,
0.59,> 10,> 100,> 1000,"Fc1ccc(-c2cnc(Nc3cccc(CC4CNCCOC4)n3)s2)cc1 (centres unmarked) [Example 013, [5-(4-Fluoro-phenyl)-thiazol-2-yl]-(6-[1,4]oxazepan-6-ylmethyl-pyridin-2-yl)-amine]",≤ 1,< 1,> 1,> 1,
0.96,< 10,< 10,> 10,"Fc1ccc(-c2cnc(Nc3cc(CC4CNCCNC4)ccn3)s2)cc1 [Example 019, (4-[1,4]Diazepan-6-ylmethyl-pyridin-2-yl)-[5-(4-fluoro-phenyl)-thiazol-2-yl]-amine]",> 1,> 1,> 10,> 10,
0.81,> 10,< 10,> 10,"Cc1nc(Nc2ncc(-c3ccccc3)s2)cc(C2CCN(CCO)CC2)n1 [Example 032, 2-{4-[2-Methyl-6-(5-phenyl-thiazol-2-ylamino)-pyrimidin-4-yl]-piperidin-1-yl}-ethanol]",,≤ 1,> 10,> 1,
1.38,> 100,> 100,> 100,"OCCN1CCC(c2ccnc(Nc3ncc(CC(F)(F)F)s3)c2)CC1 [Example 040, 2-{2'-[5-(2,2,2-Trifluoro-ethyl)-thiazol-2-ylamino]-3,4,5,6-tetrahydro-2H-[4,4']bipyridinyl-1-yl}-ethanol]",> 1,> 10,> 10,≤ 1,
0.19,> 10,< 10,> 100,"O=C(Nc1ccccc1Cl)c1cnc(Nc2cc(C3CCN(CCO)CC3)ccn2)s1 [Example 044, 2-[1'-{2-Hydroxy-ethyl)-1',2',3',4',5',6' -hexahydro-[4,4']bipyridinyl-2-ylamino]-thiazole-5-carboxylic acid (2-chlorophenyl)-amide]",> 1,,,,

Structure (SMILES),"Kp ([1]; male, brain/plasma)",IC50 (cKIT) [nM],IC50 (PDGFR-α) [nM],IC50 (VEGFR-2) [nM],IC50 (A375) [µM],IC50 (A2780) [µM],IC50 (U251) [µM],IC50 (A172) [µM],Kp ([1]; brain)
OCCN1CCC(c2ccnc(Nc3ncc(-c4ccc(F)cc4)s3)c2)CC1 [Example 035],,< 10,< 10,< 10,> 1,> 1,> 1,> 1,18.5
